Entries after “also recorded” stand apart in the source; their conditions may differ.
What was measured:
[1] = tested on: patients undergoing coronary artery bypass graft (CABG) surgery; assay: Incidence of clinical outcomes, Phase 3 CABG trial; assay type: in vivo, human; conditions: for Incidence of myocardial infarction (ECG and CK-MB): placebo 4.7%; for Myocardial infarction (ECG and CK-MB), number of patients: placebo 10 of 211; for Cardiac death, number of patients: placebo 3 of 212; for Incidence of congestive heart failure: placebo 3.8%; for Life-threatening dysrhythmia, number of patients: placebo 4 of 212; for Incidence of cerebrovascular accident: placebo 4.2%; for Congestive heart failure, number of patients: placebo 8 of 212; for Cerebrovascular accident, number of patients: placebo 9 of 212; for Combined clinical outcomes, number of patients: placebo 29 of 212; for Incidence of cardiac death / Incidence of life-threatening dysrhythmia / Incidence of combined clinical outcomes: placebo […]
[2] = tested on: patients undergoing coronary artery bypass graft (CABG) surgery; assay: Difficulty in weaning from cardiopulmonary bypass (Phase 2); assay type: in vivo, human; conditions: for Weaning time (cross-clamp removal to termination of bypass): in min (unit assumed); for Weaning difficulty: balloon pump, number of patients / Weaning difficulty: return to bypass, number of patients: placebo 1, p=0.6; for Weaning difficulty: pacemaker, number of patients: placebo 2; for Weaning difficulty: pacemaker, number of patients / Weaning difficulty: other, number of patients / Weaning difficulty: other / Weaning difficulty: pacemaker: p=0.7; for Weaning difficulty: other, number of patients: placebo 5; for Weaning difficulty: vasopressors, number of patients / Weaning difficulty: vasopressors: p=0.19; for Patients with any difficulty weaning, number: placebo 13; for Weaning difficulty: other / Weaning difficulty: pacemaker: placebo […]
Experimental: During surgery, anesthesia was maintained by continuous infusion of fentanyl and midazolam. Routine clinical parameters were recorded using standard operating room monitoring equipment. Continuous 2-lead Holter ECG and TEE data were recorded. Standard surgical procedures (e.g., aorta cross-clamping, crystalloid cardioplegia, cardio-pulmonary bypass, hypothermia) were used. Anastomoses were constructed, aorta cross-clamp removed and patients were discontinued from bypass when body temperature was 37° C. The quality of anastomosis was judged by the surgeon. Difficulty in weaning from bypass was judged by need for one or more of the following: pacemaker, return to bypass, balloon pump or vasopressor administration. Hemodynamic measurements, including heart rate, arterial blood pressure, pulmonary capillary wedge pressure and cardiac output, were recorded before sternotomy, 15 and 30 min after bypass and upon chest closure. Radial artery and pulmonary artery pressures, myocardial and whole body temperature, O2 saturation, end-tidal CO2 and arterial blood gases were measured, and ECG recordings were obtained as clinically indicated. Hemodynamic variables (blood pressure, heart rate, pulmonary capillary wedge pressure) were controlled within 20% of baseline using prescribed regimens.
The incidence of adverse clinical outcomes, such as cardiac death (death of patient attributable to primarily cardiac causes, non-fatal transmural MI (as measured by the appearance of a new Q-wave on 12-lead ECG plus a CK-MB value of ≥50 units), non-transmural MI (CK-MB value of ≥50 units), congestive heart failure (low cardiac output requiring intra-aortic balloon pump or left ventricular assist device) or life-threatening dysrhythmia (ventricular fibrillation, or ventricular tachycardia requiring cardioversion or drug treatment) was compared between the placebo and treatment groups. For the diagnosis of myocardial infarction, ECG tracings and CK-MB values were assessed centrally by observers blinded to treatment. The difficulty of weaning the patient from bypass, if any, was compared between placebo and treatment groups by noting need for one or more of the following: pacemaker, return to bypass, balloon pump or use of vasopressors.
8. Difficulty in Weaning. Patients were considered to have difficulty in weaning if they needed one or more of the following interventions: pacemaker, return to bypass, balloon pump or use of vasopressors. The number of patients receiving each of the above interventions was analyzed using a X^2 and Fisher's exact test, as was the number of patients classified as having difficulty in weaning. In addition, the time to weaning (defined as time from cross-clamp removal to end of bypass) in the patients experiencing difficulty were compared by a 1-way analysis of variance.
As noted, patients were determined as being difficult to remove from cardiopulmonary bypass if they required one or more of the following interventions: insertion of a pacemaker, return to bypass, use of a balloon pump or administration of vasopressors, or another intervention which the investigation determines is indicative of difficulty in weaning. […] When a combination of the high and low dose groups were compared to placebo (Table 9b), the reduced need for vasopressor support approached statistical significance (p=0.08). […] There were no differences in any of the weaning difficulty parameters discussed above between the high and low dose groups (Table 9c).

[3] = high dose 0.1 mg/kg/min, n=203, p<0.05
[4] = high dose 0.1 mg/kg/min, n=207, NS
[5] = high dose 0.1 mg/kg/min, n=207, p<0.05

## NC(=O)c1ncn([C@@H]2O[C@H](CO)[C@@H](O)[C@H]2O)c1N [AICA riboside, 5-amino-1-β-D-ribofuranosyl-imidazole-4-carboxamide]
[1]; [3]
  Incidence of myocardial infarction (ECG and CK-MB): 1.5%
  Myocardial infarction (ECG and CK-MB), number of patients: 3 patients
[1]; [4]
  Cardiac death, number of patients: 0 patients
  Incidence of congestive heart failure: 2.9%
  Life-threatening dysrhythmia, number of patients: 3 patients
  Congestive heart failure, number of patients: 6 patients
  Incidence of cardiac death: 0%
  Incidence of life-threatening dysrhythmia: 1.4%
[1]; [5]
  Incidence of cerebrovascular accident: 0.5%
  Cerebrovascular accident, number of patients: 1 patients
  Combined clinical outcomes, number of patients: 11 patients
  Incidence of combined clinical outcomes: 5.3%
[1]; high dose, p<0.05
  Decrease in incidence of MI vs placebo: 68%
  Decrease in incidence of cerebrovascular accident vs placebo: 88%
  Reduction in incidence of combined outcomes vs placebo: 61%
[1]; high dose, placebo 3.3%
  Incidence of all deaths: 0.5%
[1]; high dose, placebo 24.1%
  Incidence of myocardial infarction determined by either ECG or CK-MB: 20.8%
[1]; low dose 0.05 mg/kg/min vs placebo
  Combined outcome efficacy of low dose: no statistically significant efficacy
[1]; low dose 0.05 mg/kg/min, n=205
  Incidence of myocardial infarction (ECG and CK-MB): 4.4%
  Myocardial infarction (ECG and CK-MB), number of patients: 9 patients
[1]; low dose 0.05 mg/kg/min, n=214
  Cardiac death, number of patients: 5 patients
  Incidence of congestive heart failure: 2.8%
  Life-threatening dysrhythmia, number of patients: 9 patients
  Incidence of cerebrovascular accident: 0.9%
  Congestive heart failure, number of patients: 6 patients
  Cerebrovascular accident, number of patients: 2 patients
  Combined clinical outcomes, number of patients: 23 patients
  Incidence of cardiac death: 2.3%
  Incidence of combined clinical outcomes: 10.7%
  Incidence of life-threatening dysrhythmia: 4.2%
[2]; 0.05 mg/kg/min, n=41, all patients, placebo 23 +/- 2.9
  Weaning time (cross-clamp removal to termination of bypass): 20 +/- 2.2
[2]; 0.05 mg/kg/min, n=41
  Weaning difficulty: balloon pump, number of patients: 0 patients
  Weaning difficulty: return to bypass, number of patients: 0 patients
  Weaning difficulty: pacemaker, number of patients: 4 patients
  Weaning difficulty: other, number of patients: 3 patients
  Weaning difficulty: other: 7.3%
  Weaning difficulty: pacemaker: 9.8%
[2]; 0.05 mg/kg/min, n=41, placebo 8
  Weaning difficulty: vasopressors, number of patients: 3 patients
[2]; 0.05 mg/kg/min, n=41, p=0.17
  Patients with any difficulty weaning, number: 7 patients
[2]; 0.05 mg/kg/min, n=41, placebo 21.6%
  Weaning difficulty: vasopressors: 7.3%
[2]; 0.05 mg/kg/min, n=41, placebo 35%, p=0.17
  Patients with any difficulty weaning: 17%
[2]; 0.05 mg/kg/min, patients with difficulty, placebo 31.8 +/- 6.3
  Weaning time (cross-clamp removal to termination of bypass): 20 +/- 4.6
[2]; 0.1 mg/kg/min, n=34, all patients, placebo 23 +/- 2.9
  Weaning time (cross-clamp removal to termination of bypass): 17 +/- 1.8
[2]; 0.10 mg/kg/min, n=35
  Weaning difficulty: balloon pump, number of patients: 0 patients
  Weaning difficulty: return to bypass, number of patients: 0 patients
  Weaning difficulty: pacemaker, number of patients: 4 patients
  Weaning difficulty: other, number of patients: 4 patients
  Weaning difficulty: other: 11.4%
  Weaning difficulty: pacemaker: 11.4%
[2]; 0.10 mg/kg/min, n=35, placebo 8
  Weaning difficulty: vasopressors, number of patients: 4 patients
[2]; 0.10 mg/kg/min, n=35, p=0.17
  Patients with any difficulty weaning, number: 8 patients
[2]; 0.10 mg/kg/min, n=35, placebo 21.6%
  Weaning difficulty: vasopressors: 11.4%
[2]; 0.10 mg/kg/min, n=35, placebo 35%, p=0.17
  Patients with any difficulty weaning: 23%
[2]; 0.1 mg/kg/min, patients with difficulty, placebo 31.8 +/- 6.3
  Weaning time (cross-clamp removal to termination of bypass): 20.8 +/- 4.2
[2]; 0.05 + 0.10 mg/kg/min combined, n=76, p=0.06
  Patients with any difficulty weaning, number: 15 patients
[2]; 0.05 + 0.10 mg/kg/min combined, n=76, placebo 35.1%, p=0.06
  Patients with any difficulty weaning: 19.7%
[2]; 0.05 + 0.10 mg/kg/min combined, placebo 8, p=0.08
  Vasopressors required, number of patients: 7 patients
[2]; 0.05 + 0.10 mg/kg/min combined, placebo 21.6%, p=0.08
  Vasopressors required: 9.2%
[2]; low and high dose groups, p=0.19 separately, p=0.08 combined
  Need for vasopressor support vs placebo: strong trend towards a reduced need for vasopressor support; also recorded: less likely to receive vasopressor assistance
[2]; p=0.17 when compared separately, p=0.06 combined dose groups
  Weaning difficulty vs placebo: towards a reduction in weaning difficulty in the drug treated groups

Reference: patent US5817640A (Gensia Pharmaceuticals, priority 1995, dated 1998)
